Values of other authors as cited in patent US20160346291A1, “COMPOSITIONS AND THERAPEUTIC METHODS FOR ACCELERATED PLAQUE REGRESSION” (Resverlogix Corp, priority 2013, published 2016).
Where two headings read alike, the source gives them in different places.

Key:
coronary atherosclerosis [1] = conditions: 2 years; rosuvastatin 40 mg daily, atorvastatin 80 mg daily; cited from earlier work
coronary atherosclerosis [2] = conditions: 2 years; pravastatin 40 mg daily, atorvastatin 80 mg daily; cited from earlier work
ABCA1 = conditions: cited from earlier work

CC(C)c1c(C(=O)Nc2ccccc2)c(-c2ccccc2)c(-c2ccc(F)cc2)n1CC[C@@H](O)C[C@@H](O)CC(=O)O [atorvastatin]
median change in PAV (coronary atherosclerosis [1]): −0.99%
median change in PAV (coronary atherosclerosis [2]): +0.2%
effect on expression of ABCA1 (ABCA1): inhibit ABCA1 expression
